# Laboratory results: patent US8987500B2, “4-biphenyl-substituted pyrazolidin-3,5-dione derivatives” (Bayer CropScience AG, priority 2003, dated 2015)
# Tested on: greenhouse red spider mite (Tetranychus urticae)
# Assay: Tetranychus test (OP-resistant/spray treatment), Example G
# Format: in vivo
# Conditions: Tetranychus urticae (OP-resistant), bean leaf discs, spray treatment, 100 g/ha
# Method: Tetranychus Test (OP-Resistant/Spray Treatment)
# To produce a suitable preparation of active compound, 1 part by weight of active compound is mixed with the stated amounts of solvents and emulsifier, and the concentrate is diluted with emulsifier-containing water to the desired concentration.
# Discs of bean leaves (Phaseolus vulgaris) which are infested by all stages of the greenhouse red spider mite (Tetranychus urticae) are sprayed with a preparation of active compound of the desired concentration.
# After the desired period of time, the activity in % is determined 100% means that all spider mites have been killed; 0% means that none of the spider mites have been killed.
row,SMILES,Kill rate in % after 5d
1,Cc1ccc(-c2ccc(F)cc2)cc1-c1c(OC(=O)C(C)(C)C)n2n(c1=O)CCOCC2 [Ex. I-2-b-6],90%
2,CCOC(=O)Oc1c(-c2cc(-c3cccc([N+](=O)[O-])c3)ccc2C)c(=O)n2n1CCOCC2 [Ex. I-2-c-26],90%

# Same assay, conditions: Tetranychus urticae (OP-resistant), bean leaf discs, spray treatment, 500 g/ha
row,SMILES,Kill rate in % after 5d
1,Cc1ccc(-c2ccc(C)c(-c3c(OC(=O)C(C)(C)C)n4n(c3=O)CCCC4)c2)cc1 [Ex. I-1-b-9],100%
2,Cc1ccc(-c2cccc(Cl)c2Cl)cc1-c1c(OC(=O)C(C)(C)C)n2n(c1=O)CCCC2 [Ex. I-1-b-10],90%
3,Cc1ccc(-c2ccc(Oc3ccccc3)cc2)cc1-c1c(OC(=O)C(C)(C)C)n2n(c1=O)CCCC2 [Ex. I-1-b-28],100%
4,Cc1cc(C)c(-c2c(OC(=O)C(C)(C)C)n3n(c2=O)CCCC3)c(C)c1-c1ccc(F)cc1 [Ex. I-1-b-34],90%
5,CCOC(=O)Oc1c(-c2cc(-c3ccccc3C)ccc2C)c(=O)n2n1CCCC2 [Ex. I-1-c-7],100%
6,CCOC(=O)Oc1c(-c2cc(-c3ccc(Cl)cc3Cl)ccc2C)c(=O)n2n1CCCC2 [Ex. I-1-c-11],100%
7,CCOC(=O)Oc1c(-c2cc(-c3cc(Cl)ccc3Cl)ccc2C)c(=O)n2n1CCCC2 [Ex. I-1-c-12],100%
8,CCOC(=O)Oc1c(-c2cc(-c3cc(F)ccc3F)ccc2C)c(=O)n2n1CCCC2 [Ex. I-1-c-16],100%
9,Cc1ccc(-c2cccc(Cl)c2Cl)cc1-c1c(OC(=O)C(C)(C)C)n2n(c1=O)CCOCC2 [Ex. I-2-b-10],100%
10,CCOC(=O)Oc1c(-c2cc(-c3cccc(Cl)c3Cl)ccc2C)c(=O)n2n1CCOCC2 [Ex. I-2-c-10],100%
11,CCOC(=O)Oc1c(-c2cc(-c3ccc(OC)cc3)ccc2C)c(=O)n2n1CCOCC2 [Ex. I-2-c-23],100%
12,Cc1ccc(-c2cccc(Cl)c2Cl)cc1-c1c(O)n2n(c1=O)CCCC2 [Example I-1-a-10],90%
13,Cc1ccc(-c2ccc(Cl)cc2Cl)cc1-c1c(O)n2n(c1=O)CCCC2 [Example I-1-a-11],100%
14,Cc1ccc(-c2ccc(F)c(Cl)c2)cc1-c1c(O)n2n(c1=O)CCCC2 [Example I-1-a-17],90%
15,Cc1ccc(-c2cccc(Cl)c2)cc1-c1c(O)n2n(c1=O)CCOCC2 [Example I-2-a-2],90%

# Tested on: larvae of the mustard beetle (Phaedon cochleariae)
# Assay: Phaedon test (spray treatment), Example E
# Format: in vivo
# Conditions: Table E, 500 g/ha active compound
# Method: (§1) Phaedon Test (Spray Treatment) [table] To produce a suitable preparation of active compound, 1 part by weight of active compound is mixed with the stated amounts of solvents and emulsifier, and the concentrate is diluted with emulsifier-containing water to the desired concentration. Discs of Chinese cabbage (Brassica pekinensis) are sprayed with a preparation of active compound of the desired concentration and, after they have dried, populated with larvae of the mustard beetle (Phaedon cochleariae). After the desired period of time, the activity in % is determined 100% means that all beetle larvae have been killed; 0% means that none of the beetle larvae have been killed.
row,SMILES,Kill rate in % after 7d
1,Cc1ccc(-c2ccc(Cl)c(Cl)c2)cc1-c1c(OC(=O)C(C)(C)C)n2n(c1=O)CCCC2 [Ex. I-1-b-13],100%
2,Cc1ccc(-c2cc(F)ccc2F)cc1-c1c(OC(=O)C(C)(C)C)n2n(c1=O)CCCC2 [Ex. I-1-b-16],100%
3,Cc1ccc(-c2ccc(OC(F)(F)F)cc2)cc1-c1c(OC(=O)C(C)(C)C)n2n(c1=O)CCCC2 [Ex. I-1-b-27],100%
4,CCOC(=O)Oc1c(-c2cc(-c3ccc(C)cc3)ccc2C)c(=O)n2n1CCCC2 [Ex. I-1-c-9],100%
5,CCOC(=O)Oc1c(-c2cc(-c3cc(Cl)cc(Cl)c3)ccc2C)c(=O)n2n1CCCC2 [Ex. I-1-c-14],100%
6,Cc1ccc(-c2ccc(F)c(Cl)c2)cc1-c1c(OC(=O)C(C)(C)C)n2n(c1=O)CCOCC2 [Ex. I-2-b-17],100%
7,Cc1ccc(-c2cccc(C(F)(F)F)c2)cc1-c1c(OC(=O)C(C)(C)C)n2n(c1=O)CCOCC2 [Ex. I-2-b-19],100%
8,Cc1cc(C)c(-c2c(OC(=O)C(C)(C)C)n3n(c2=O)CCOCC3)c(C)c1-c1ccc(F)cc1 [Ex. I-2-b-32],100%
9,CCOC(=O)Oc1c(-c2cc(-c3ccccc3F)ccc2C)c(=O)n2n1CCOCC2 [Ex. I-2-c-4],100%
10,CCOC(=O)Oc1c(-c2cc(-c3ccccc3C)ccc2C)c(=O)n2n1CCOCC2 [Ex. I-2-c-7],100%
11,CCOC(=O)Oc1c(-c2cc(-c3ccc(C)cc3)ccc2C)c(=O)n2n1CCOCC2 [Ex. I-2-c-9],100%
12,CCOC(=O)Oc1c(-c2cc(-c3ccc(Cl)cc3Cl)ccc2C)c(=O)n2n1CCOCC2 [Ex. I-2-c-11],100%
13,CCOC(=O)Oc1c(-c2cc(-c3cc(Cl)ccc3Cl)ccc2C)c(=O)n2n1CCOCC2 [Ex. I-2-c-12],100%
14,CCOC(=O)Oc1c(-c2cc(-c3cc(Cl)cc(Cl)c3)ccc2C)c(=O)n2n1CCOCC2 [Ex. I-2-c-14],100%
15,CCOC(=O)Oc1c(-c2cc(-c3ccc(F)cc3F)ccc2C)c(=O)n2n1CCOCC2 [Ex. I-2-c-15],100%
16,CCOC(=O)Oc1c(-c2cc(-c3ccc(F)c(Cl)c3)ccc2C)c(=O)n2n1CCOCC2 [Ex. I-2-c-17],100%
17,CCOC(=O)Oc1c(-c2cc(-c3cccc(C(F)(F)F)c3)ccc2C)c(=O)n2n1CCOCC2 [Ex. I-2-c-19],100%
18,Cc1ccc(-c2ccc(Cl)c(Cl)c2)cc1-c1c(O)n2n(c1=O)CCCC2 [Example I-1-a-13],100%
19,Cc1ccc(-c2ccc(Cl)c(Cl)c2)cc1-c1c(O)n2n(c1=O)CCOCC2 [Example I-2-a-13],100%
20,Cc1ccc(-c2cccc([N+](=O)[O-])c2)cc1-c1c(O)n2n(c1=O)CCOCC2 [Example I-2-a-26],100%

# Tested on: caterpillars of the army worm (Spodoptera frugiperda)
# Assay: Spodoptera frugiperda test (spray treatment), Example F
# Format: in vivo
# Conditions: maize leaf discs, 100 g/ha
# Method: as §1, with “Spodoptera frugiperda” for “Phaedon”, “maize leaves (Zea mays)” for “Chinese cabbage (Brassica pekinensis)”, “caterpillars” for “larvae”, “army worm (Spodoptera frugiperda).” for “mustard beetle (Phaedon cochleariae).”, “caterpillars” for “beetle larvae”
row,SMILES,Kill rate in % after 7d
1,Cc1ccc(-c2ccc(Cl)cc2)cc1-c1c(OC(=O)C(C)C)n2n(c1=O)CCCC2 [Ex. I-1-b-32],100%

# Same assay, conditions: maize leaf discs, 500 g/ha
row,SMILES,Kill rate in % after 7d
1,Cc1ccc(-c2ccc(F)cc2F)cc1-c1c(OC(=O)C(C)(C)C)n2n(c1=O)CCCC2 [Ex. I-1-b-15],100%
2,CCOC(=O)Oc1c(-c2cc(-c3ccc(Cl)c(Cl)c3)ccc2C)c(=O)n2n1CCCC2 [Ex. I-1-c-13],83%
3,CCOC(=O)Oc1c(-c2cc(-c3cccc(C(F)(F)F)c3)ccc2C)c(=O)n2n1CCCC2 [Ex. I-1-c-18],100%
4,Cc1ccc(-c2cccc(Cl)c2)cc1-c1c(OC(=O)C(C)(C)C)n2n(c1=O)CCOCC2 [Ex. I-2-b-2],100%
5,Cc1ccc(-c2ccc(Cl)cc2)cc1-c1c(OC(=O)C(C)(C)C)n2n(c1=O)CCOCC2 [Ex. I-2-b-3],83%
6,Cc1ccc(-c2cccc(F)c2)cc1-c1c(OC(=O)C(C)(C)C)n2n(c1=O)CCOCC2 [Ex. I-2-b-5],100%
7,Cc1ccc(-c2ccc(C(F)(F)F)cc2)cc1-c1c(OC(=O)C(C)(C)C)n2n(c1=O)CCOCC2 [Ex. I-2-b-20],100%
8,CCOC(=O)Oc1c(-c2cc(-c3cccc(Cl)c3)ccc2C)c(=O)n2n1CCOCC2 [Ex. I-2-c-2],83%
9,CCOC(=O)Oc1c(-c2cc(-c3ccc(Cl)cc3)ccc2C)c(=O)n2n1CCOCC2 [Ex. I-2-c-3],100%
10,CCOC(=O)Oc1c(-c2cc(-c3cccc(F)c3)ccc2C)c(=O)n2n1CCOCC2 [Ex. I-2-c-5],100%
11,CCOC(=O)Oc1c(-c2cc(-c3ccc(Cl)c(Cl)c3)ccc2C)c(=O)n2n1CCOCC2 [Ex. I-2-c-13],100%
12,CCOC(=O)Oc1c(-c2cc(-c3ccc(C(F)(F)F)cc3)ccc2C)c(=O)n2n1CCOCC2 [Ex. I-2-c-20],100%
13,Cc1ccc(-c2ccc(F)cc2)cc1-c1c(O)n2n(c1=O)CCOCC2 [Example I-2-a-6],100%
